Source: patent US4354039A, “Chlorocitric acids” (Hoffmann-La Roche Inc., priority 1981, dated 1982)
Where a name gives a salt, the structure may show the parent alone. Read-outs that look alike come from different tables or passages of the source.

Tests used:
[1] = Comparative anorectic activity, food consumption of meal-fed rats (Example 13); assay type: in vivo, Charles River female rats; details: 3 hr meal
Method: Charles River female rats (Charles River Breeding Laboratories, Wilmington, Mass.), weighing 150 to 175 g, were individually housed in wire-bottomed cages in a temperature-regulated (22° C.) light-controlled room (12 hr light, 6 a.m. to 6 p.m. and 12 hr dark, 6 p.m. to 6 a.m.). Animals were fasted 48 hr, then meal-fed the 70% glucose diet described by A. C. Sullivan, et al., J. Nutrition, 101, 265 (1971) from 8 to 11 a.m. Following 5 to 13 days alimentation on the meal-feeding regimen, rats were dosed with the appropriate compounds orally by intubation 1/2 hr before the 3 hr meal. Food cups were weighed immediately after the meal. The control group consists of 31 rats while each drug treated group consists of 5 to 12 rats.
The G-70 diet consisted of 70% glucose, 23% vitamin-free casein, 5% Phillips and Hart salt mixture IV, 1% corn oil, 1% complete vitamin mixture, and 40 g/kg cellulose. To ensure complete uniformity, all diets were mixed with a twen-shell dry blender equipped with an itensifier bar (Patterson-Kelley Co., East Stroudsburg, Pa.).

isolated rat hepatocytes = experiment: Fatty acid and cholesterol synthesis and CO2 production in isolated hepatocytes (Example 23); assay type: cell-based, Female Charles River rats; details: for activity at 2000 µM: Rattus norvegicus, Hepatocyte, 1 h, 2 mM, 60 min, 37° C.
Method: Female Charles River rats were fasted 48 hr, then meal-fed a 1% corn oil, 70% glucose diet for 7 to 14 days from 8 to 11 a.m. The isolated rat hepatocytes were prepared by perfusing the liver in situ. The hepatocytes were incubated in an oscillating water bath at 37° C. for 60 min. […] All incubations were done in triplicate and all experiments were repeated at least twice. […] The contents of the center well were transferred to scintillation counting fluid and ^14 CO2 content was determined. […] The media was then acidified, extracted with hexane, and the extract counted (to determine the rate of lipogenesis). The conversion of ^3 H2 O and [^14 C]alanine into fatty acids or sterols was determined in a PDS/3, Mark II liquid scintillation counting system.

[2] = Effect on stomach emptying, [14C] glucose load (Example 25); assay type: in vivo, Rats; details: for Serum, % of control / Stomach Contents, % of control: 0.33 mmoles/kg oral, 60 min after [14C] glucose load
Method: Rats were trained to consume a 3 hr 70% glucose meal from 8 a.m. to 11 a.m. daily. On the experimental day, compounds were administered orally by intubation 30 min before a [^14 C] glucose load was given also by intubation. […] Sixty minutes later the rats were killed by decapitation; blood and stomachs were collected on ice.
Data are expressed as follows: dpm×10^3 per ml of serum and dpm×10^3 per stomach.

[3] = Food intake in dogs, pyramiding oral doses (Examples 26 and 27); assay type: in vivo, beagle dogs
Method: Twelve beagle dogs of both sexes weighing 7.6-12.2 kg were used for this test. The test compounds were contained in gelatin capsules for oral administration to two dogs of each sex. The animals were weighed and food consumption calculated daily excluding weekends throughout the test period. Each animal received 800 grams of diet daily consisting of 400 grams of Wayne pellet dog food mixed with 400 ml distilled water. The animals received pyramiding oral doses of the test compound over the three week period. On Monday and Tuesday of the first week the animals were weighed and food consumption was recorded (control). […] Doses of 30, 100 and 300 mg/kg were administered on Monday, Wednesday and Friday respectively during the second week. A final dose of 1000 mg/kg was administered on Monday of the third week.
Food intake was determined by the procedure at pyramiding doses described in EXAMPLE 26.

[4] = Effect of stereoisomers on food consumption of meal-fed rats (Example 14); assay type: in vivo, Charles River female rats; details: 2.63 mmoles/kg oral
Method: Animals were fasted 48 hr, then meal-fed the 70% glucose diet described by A. C. […] Following 5 to 12 days alimentation on the meal-feeding regimen, rats were dosed with the appropriate compounds orally by intubation 1/2 hr before the 3 hr meal. Food cups were weighed immediately after the meal. The control group consisted of 5 to 10 rats, while the experimental group consisted of 4 to 6 rats.

[5] = Anorectic effect in 8 hour meal-fed Zucker rats (Example 17); assay type: in vivo, lean (Fa/-) and obese (fa/fa)
Method: Lean (Fa/-) Zucker rats and obese (fa/fa) Zucker rats of both sexes were individually housed in wire-bottomed cages in a temperature-regulated (22° C.) light-controlled room (12 hr light, 6 a.m. to 6 p.m. and 12 hr dark, 6 p.m. to 6 a.m.). The animals were fed a high carbohydrate (70% glucose) diet ad libitum for 13 days, dosed with the indicated compounds by oral intubation for 9 days and allowed to recover for 3 days. The animals were then meal fed from 8 a.m. to 4 p.m. for a period of 5 days, following which they were continued on the same meal schedule for an additional 6 days. During the 6-day period, the animals were administered the indicated compounds by oral intubation at 8 a.m. and 12 p.m. Food cups were weighed immediately after the meal.

[6] = test day 8, dose 100 mg/kg oral
[7] = test day 10, dose 300 mg/kg oral
[8] = test day 13, dose 1000 mg/kg oral

SMILES: O=C(O)C[C@@](O)(C(=O)O)[C@H](O)C(=O)O [Trisodium (-)-threo-hydroxycitrate, reference compound]
- Food Consumption, % of control ([1]; 0.33 mmoles/kg oral): 103 % of control
- Food Consumption, % of control ([1]; 0.66 mmoles/kg oral): 80 % of control
- Food Consumption, % of control ([1]; 1.32 mmoles/kg oral): 88 % of control
- Food Consumption, % of control ([1]; 2.63 mmoles/kg oral): 79 % of control
- activity at 2000 µM (isolated rat hepatocytes; read-out: CO2 Production, [14C]alanine converted): 103%
- activity at 2000 µM (isolated rat hepatocytes; read-out: Cholesterol Synthesis, 3H2O converted): 60%
- activity at 2000 µM (isolated rat hepatocytes; read-out: Cholesterol Synthesis, [14C]alanine converted): 18%
- activity at 2000 µM (isolated rat hepatocytes; read-out: Fatty Acid Synthesis, 3H2O converted): 54%
- activity at 2000 µM (isolated rat hepatocytes; read-out: Fatty Acid Synthesis, [14C]alanine converted): 30%
- Serum, % of control [2]: 79 % of control
- Stomach Contents, % of control [2]: 223 % of control

SMILES: O=C(O)C[C@@](O)(C(=O)O)[C@@H](Cl)C(=O)O (relative stereo) [(±)-threo-Chlorocitric acid]
- Food Consumption, % of control ([1]; 0.08 mmoles/kg oral): 57 % of control
- Food Consumption, % of control ([1]; 0.17 mmoles/kg oral): 61 % of control
- Food Consumption, % of control ([1]; 0.33 mmoles/kg oral): 51 % of control
- Food Consumption, % of control ([1]; 0.66 mmoles/kg oral): 35 % of control
- Food Consumption, % of control ([1]; 1.32 mmoles/kg oral): 28 % of control
- Food Consumption, % of control ([1]; 2.63 mmoles/kg oral): 34 % of control
- Food Consumption ([3]; test day 1, dose 3 mg/kg oral): 616 ± 79 g
- Food Consumption, % of control ([3]; test day 1, dose 3 mg/kg oral): 129 % of control
- Food Consumption ([3]; test day 2, no dose): 392 ± 140 g
- Food Consumption, % of control ([3]; test day 2, no dose): 82 % of control
- Food Consumption ([3]; test day 3, dose 10 mg/kg oral): 460 ± 136 g
- Food Consumption, % of control ([3]; test day 3, dose 10 mg/kg oral): 96 % of control
- Food Consumption ([3]; test day 6, dose 30 mg/kg oral): 511 ± 104 g
- Food Consumption, % of control ([3]; test day 6, dose 30 mg/kg oral): 107 % of control
- Food Consumption, % of control ([3]; test day 7, no dose): 100 % of control
- Food Consumption [3, 6]: 299 ± 176 g
- Food Consumption, % of control [3, 6]: 62 % of control
- Food Consumption ([3]; test day 9, no dose): 492 ± 110 g
- Food Consumption, % of control ([3]; test day 9, no dose): 103 % of control
- Food Consumption [3, 7]: 316 ± 109 g
- Food Consumption, % of control [3, 7]: 66 % of control
- Food Consumption [3, 8]: 164 ± 61 g
- Food Consumption, % of control [3, 8]: 34 % of control
- Food Consumption ([3]; test day 14, no dose): 560 ± 136 g
- Food Consumption, % of control ([3]; test day 14, no dose): 117 % of control
- Food Consumption ([3]; test day 15, no dose): 543 ± 92 g
- Food Consumption, % of control ([3]; test day 15, no dose): 113 % of control
- Food Consumption ([3]; test day 16, no dose): 624 ± 88 g
- Food Consumption, % of control ([3]; test day 16, no dose): 130 % of control
- Food Consumption ([3]; test day 17, no dose): 645 ± 93 g
- Food Consumption, % of control ([3]; test day 17, no dose): 135 % of control
- Food Consumption ([3]; test day 21, no dose): 561 ± 83 g
- Food Consumption, % of control ([3]; test day 21, no dose): 117 % of control
- Food Consumption ([3]; test day 22, no dose): 649 ± 91 g
- Food Consumption, % of control ([3]; test day 22, no dose): 135 % of control
- Food Consumption ([3]; test day 23, no dose): 533 ± 118 g
- Food Consumption, % of control ([3]; test day 23, no dose): 111 % of control
- Food Consumption ([3]; test day 24, no dose): 477 ± 114 g
- Food Consumption, % of control ([3]; test day 24, no dose): 100 % of control
- Food Consumption ([3]; test day 27, no dose): 518 ± 139 g
- Food Consumption, % of control ([3]; test day 27, no dose): 108 % of control
- Food Consumption ([3]; test day 28, no dose): 663 ± 137 g
- Food Consumption, % of control ([3]; test day 28, no dose): 138 % of control

SMILES: O=C(O)CC(O)(CC(=O)O)C(=O)O [Citric Acid]
- Food Consumption, % of control [4]: 94 % of control
- Daily Food Consumption ([5]; Fa/-- lean, 1.32 mmoles/kg group, pretreatment day 0): 11.0 ± 0.8 g
- Daily Food Consumption ([5]; Fa/-- lean, 1.32 mmoles/kg oral, day 1): 10.6 ± 1.2 g
- Daily Food Consumption ([5]; Fa/-- lean, 1.32 mmoles/kg oral, day 2): 10.0 ± 1.2 g
- Daily Food Consumption ([5]; Fa/-- lean, 1.32 mmoles/kg oral, day 3): 12.7 ± 1.0 g
- Daily Food Consumption ([5]; Fa/-- lean, 1.32 mmoles/kg oral, day 4): 11.9 ± 0.7 g
- Daily Food Consumption ([5]; Fa/-- lean, 1.32 mmoles/kg oral, day 5): 12.6 g
- Daily Food Consumption ([5]; Fa/-- lean, 1.32 mmoles/kg oral, day 6): 13.1 ± 0.9 g
- Daily Food Consumption ([5]; fa/fa obese, 1.32 mmoles/kg group, pretreatment day 0): 13.4 ± 0.8 g
- Daily Food Consumption ([5]; fa/fa obese, 1.32 mmoles/kg oral, day 1): 11.4 ± 0.8 g
- Daily Food Consumption ([5]; fa/fa obese, 1.32 mmoles/kg oral, day 2): 13.8 ± 1.2 g
- Daily Food Consumption ([5]; fa/fa obese, 1.32 mmoles/kg oral, day 3): 16.5 ± 1.0 g
- Daily Food Consumption ([5]; fa/fa obese, 1.32 mmoles/kg oral, day 4): 14.8 ± 0.9 g
- Daily Food Consumption ([5]; fa/fa obese, 1.32 mmoles/kg oral, day 6): 16.0 ± 1.0 g

SMILES: O=C(O)CC(O)(C(=O)O)C(O)C(=O)O (single isomer, unassigned) [hydroxycitric acid, reference compound]
- inhibition of lipid (fatty acid) and cholesterol syntheses (isolated rat hepatocytes; in words): inhibition of fatty acid and cholesterol syntheses
- gastric emptying ([2]; in words, comparable doses): delayed gastric emptying

SMILES: O=C(O)CC(O)(CC(=O)O)C(=O)O [Trisodium Citrate, reference compound]
- Serum, % of control [2]: 112 % of control
- Stomach Contents, % of control [2]: 133 % of control
